The source of these data is patent publication US20230348376A1 (TEIJIN PHARMA LIMITED, priority 2020, published 2023).

The test addresses T1, human VDR (Homo sapiens, UniProt P11473).
T1 sequence (P11473 1-427): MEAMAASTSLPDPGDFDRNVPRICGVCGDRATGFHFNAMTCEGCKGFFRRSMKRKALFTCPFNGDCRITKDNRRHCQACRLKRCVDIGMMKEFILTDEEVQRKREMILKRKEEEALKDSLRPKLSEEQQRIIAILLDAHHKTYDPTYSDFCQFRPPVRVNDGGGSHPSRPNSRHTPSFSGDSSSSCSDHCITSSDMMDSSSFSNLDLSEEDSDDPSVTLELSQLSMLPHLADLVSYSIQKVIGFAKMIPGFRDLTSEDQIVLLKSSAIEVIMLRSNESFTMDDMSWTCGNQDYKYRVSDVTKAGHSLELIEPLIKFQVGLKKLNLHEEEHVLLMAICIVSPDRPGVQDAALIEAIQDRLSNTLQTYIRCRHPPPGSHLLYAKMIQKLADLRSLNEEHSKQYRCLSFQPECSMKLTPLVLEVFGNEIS
T1 sequence (P19793 1-462 partner): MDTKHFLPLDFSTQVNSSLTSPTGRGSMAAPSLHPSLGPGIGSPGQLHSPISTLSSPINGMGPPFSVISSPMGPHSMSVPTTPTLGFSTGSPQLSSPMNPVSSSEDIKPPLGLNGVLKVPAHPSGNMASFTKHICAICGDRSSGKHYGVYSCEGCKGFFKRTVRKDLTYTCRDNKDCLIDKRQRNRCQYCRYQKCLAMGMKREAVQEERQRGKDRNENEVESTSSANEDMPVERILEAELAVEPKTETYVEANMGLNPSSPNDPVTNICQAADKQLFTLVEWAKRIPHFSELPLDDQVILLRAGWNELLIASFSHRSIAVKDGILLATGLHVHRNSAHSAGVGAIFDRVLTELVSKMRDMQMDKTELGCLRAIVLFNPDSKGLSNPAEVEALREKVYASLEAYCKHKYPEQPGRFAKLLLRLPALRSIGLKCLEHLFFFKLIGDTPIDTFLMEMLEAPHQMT
Briefly: Evaluation of VDR transcription activity in human osteoblasts (HOS cells), luciferase reporter. The note with it: Activity (EC50, VDR transcription activity), HOS cells transfected with human VDR, human RXRα and DR3 luciferase reporter; 21 hours. On the technique in general: In a reporter assay the amount or activity of a reporter protein is the signal.
The EC50 is the concentration giving half of the maximal effect. A low value points to a more potent agent. With `C=C1C(O)CC(=C/C=C2\CCC[C@]3(C)[C@@H]([C@H](C)CN4CC[C@@](C)(O)C4)CC[C@@H]23)C[C@H]1O` (stereo in doubt) [Compound B076, (1R,3S)-5-(2-((1R,3aS,7aR,E)-1-((S)-1-((R)-3-hydroxy-3-methylpyrrolidin-1-yl)propan-2-yl)-7a-methyloctahydro-4H-inden-4-ylidene)ethylidene)-2-methylenecyclohexane-1,3-diol], the concentration for a half-maximal effect (EC50) is 10 to 100 nM.
The value for `C[C@@H](CN1CC[C@@H](F)C1)[C@H]1CC[C@H]2/C(=C/C=C3CC(O)C[C@H](O)C3)CCC[C@]12C` (stereo in doubt) [Compound B098, (1R,3S)-5-(2-((1R,3aS,7aR,E)-1-((R)-1-((R)-3-fluoropyrrolidin-1-yl)propan-2-yl)-7a-methyloctahydro-4H-inden-4-ylidene)ethylidene)cyclohexane-1,3-diol] was 10 to 100 nM.
With `C[C@@H](CN1CC[C@H](C(F)F)C1)[C@H]1CC[C@H]2/C(=C/C=C3CC(O)C[C@H](O)C3)CCC[C@]12C` (stereo in doubt) [Compound B099, (1R,3S)-5-(2-((1R,3aS,7aR,E)-1-((R)-1-((S)-3-(difluoromethyl)pyrrolidin-1-yl)propan-2-yl)-7a-methyloctahydro-4H-inden-4-ylidene)ethylidene)cyclohexane-1,3-diol], the EC50 is 10 to 100 nM.
Molecule `C[C@@H](CN1CC[C@@H](C(F)F)C1)[C@H]1CC[C@H]2/C(=C/C=C3CC(O)C[C@H](O)C3)CCC[C@]12C` (stereo in doubt) [Compound B100, (1R,3S)-5-(2-((1R,3aS,7aR,E)-1-((R)-1-((R)-3-(difluoromethyl)pyrrolidin-1-yl)propan-2-yl)-7a-methyloctahydro-4H-inden-4-ylidene)ethylidene)cyclohexane-1,3-diol] displayed an EC50 of 1 to 10 nM.
`C[C@@H](CN1CC[C@H](C(C)(F)F)C1)[C@H]1CC[C@H]2/C(=C/C=C3CC(O)C[C@H](O)C3)CCC[C@]12C` (stereo in doubt) [Compound B101, (1R,3S)-5-(2-((1R,3aS,7aR,E)-1-((R)-1-((S)-3-(1,1-difluoroethyl)pyrrolidin-1-yl)propan-2-yl)-7a-methyloctahydro-4H-inden-4-ylidene)ethylidene)cyclohexane-1,3-diol] had an EC50 of 10 to 100 nM.
Turning to `C[C@@H](CN1CC[C@@H](C(C)(F)F)C1)[C@H]1CC[C@H]2/C(=C/C=C3CC(O)C[C@H](O)C3)CCC[C@]12C` (stereo in doubt) [Compound B102, (1R,3S)-5-(2-((1R,3aS,7aR,E)-1-((R)-1-((R)-3-(1,1-difluoroethyl)pyrrolidin-1-yl)propan-2-yl)-7a-methyloctahydro-4H-inden-4-ylidene)ethylidene)cyclohexane-1,3-diol], the concentration giving a half-maximal response (EC50) fell in the range of 1 to 10 nM.
The value for `C[C@@H](CN1CC[C@@H](CC(F)F)C1)[C@H]1CC[C@H]2/C(=C/C=C3CC(O)C[C@H](O)C3)CCC[C@]12C` (stereo in doubt) [Compound B103, (1R,3 S)-5-(2-((1R,3aS,7aR,E)-1-((R)-1-((S)-3-(2,2-difluoroethyl)pyrrolidin-1-yl)propan-2-yl)-7a-methyloctahydro-4H-inden-4-ylidene)ethylidene)cyclohexane-1,3-diol] was 10 to 100 nM; that for `C=C1C(O)CC(=C/C=C2\CCC[C@]3(C)[C@@H]([C@H](C)CCN4CCOC5(CC5)C4)CC[C@@H]23)C[C@H]1O` (stereo in doubt) [Compound D026, (1R,3S)-5-(2-((1R,3aS,7aR,E)-1-((R)-4-(4-oxa-7-azaspiro[2.5]octan-7-yl)butan-2-yl)-7a-methyloctahydro-4H-inden-4-ylidene)ethylidene)-2-methylenecyclohexane-1,3-diol] was 1 to 10 nM.
As to `C=C1/C(=C\C=C2/CCC[C@]3(C)[C@@H]([C@H](C)CCN4CCOC[C@H]4C)CC[C@@H]23)C[C@@H](O)CC1O` (stereo in doubt) [Compound D046, (1R,3R,Z)-5-(2-((1R,3aS,7aR,E)-7a-methyl-1-((R)-4-((R)-3-methylmorpholino)butan-2-yl)octahydro-4H-inden-4-ylidene)ethylidene)-4-methylenecyclohexane-1,3-diol], the concentration for a half-maximal effect (EC50) fell in the range of 10 to 100 nM.
Take `C=C1[C@H](O)CC(=C/C=C2\CCC[C@]3(C)[C@@H]([C@H](C)CN4CC(F)C4)CC[C@@H]23)C[C@H]1O` [Compound A002, (1R,3R)-5-(2-((1R,3aS,7aR,E)-1-((S)-1-(3-fluoroazetidin-1-yl)propan-2-yl)-7a-methyloctahydro-4H-inden-4-ylidene)ethylidene)-2-methylenecyclohexane-1,3-diol]: the concentration for a half-maximal effect (EC50) was 10 to 100 nM.
`C=C1/C(=C\C=C2/CCC[C@]3(C)[C@@H]([C@H](C)CN4CC(C(C)(F)F)C4)CC[C@@H]23)C[C@@H](O)C[C@@H]1O` [Compound A006, (1R,3S,Z)-5-(2-((1R,3aS,7aR,E)-1-((S)-1-(3-(1,1-difluoroethyl)azetidin-1-yl)propan-2-yl)-7a-methyloctahydro-4H-inden-4-ylidene)ethylidene)-4-methylenecyclohexane-1,3-diol] returned an EC50 of 10 to 100 nM.
To `C=C1[C@H](O)CC(=C/C=C2\CCC[C@]3(C)[C@@H]([C@H](C)CN4CC(C(C)(F)F)C4)CC[C@@H]23)C[C@H]1O` [Compound A007, (1R,3R)-5-(2-((1R,3aS,7aR,E)-1-((S)-1-(3-(1,1-difluoroethyl)azetidin-1-yl)propan-2-yl)-7a-methyloctahydro-4H-inden-4-ylidene)ethylidene)-2-methylenecyclohexane-1,3-diol] belongs 10 to 100 nM; to `C=C1/C(=C\C=C2/CCC[C@]3(C)[C@@H]([C@H](C)CN4CC(C(C)(F)F)C4)CC[C@@H]23)C[C@@H](O)[C@H](C)[C@@H]1O` [Compound A008, (1R,2S,3S,Z)-5-(2-((1R,3aS,7aR,E)-1-((S)-1-(3-(1,1-difluoroethyl)azetidin-1-yl)propan-2-yl)-7a-methyloctahydro-4H-inden-4-ylidene)ethylidene)-2-methyl-4-methylenecyclohexane-1,3-diol], 10 to 100 nM; to `C=C1/C(=C\C=C2/CCC[C@]3(C)[C@@H]([C@H](C)CN4CC(O)(C(F)(F)F)C4)CC[C@@H]23)C[C@@H](O)C[C@@H]1O` [Compound A009, (1R,3S,Z)-5-(2-((1R,3aS,7aR,E)-1-((S)-1-(3-hydroxy-3-(trifluoromethyl)azetidin-1-yl)propan-2-yl)-7a-methyloctahydro-4H-inden-4-ylidene)ethylidene)-4-methylenecyclohexane-1,3-diol], 1 to 10 nM.
As to `C[C@H](CN1CC(O)(C(F)(F)F)C1)[C@H]1CC[C@H]2/C(=C/C=C3C[C@@H](O)C[C@H](O)C3)CCC[C@]12C` [Compound A010, (1R,3R)-5-(2-((1R,3aS,7aR,E)-1-((S)-1-(3-hydroxy-3-(trifluoromethyl)azetidin-1-yl)propan-2-yl)-7a-methyloctahydro-4H-inden-4-ylidene)ethylidene)cyclohexane-1,3-diol], the EC50 is 1 to 10 nM.
To `C=C1[C@H](O)CC(=C/C=C2\CCC[C@]3(C)[C@@H]([C@H](C)CN4CC(O)(C(F)(F)F)C4)CC[C@@H]23)C[C@H]1O` [Compound A011, (1R,3R)-5-(2-((1R,3aS,7aR,E)-1-((S)-1-(3-hydroxy-3-(trifluoromethyl)azetidin-1-yl)propan-2-yl)-7a-methyloctahydro-4H-inden-4-ylidene)ethylidene)-2-methylenecyclohexane-1,3-diol] belongs below 1 nM.
As to `COC1(C(F)(F)F)CN(C[C@@H](C)[C@H]2CC[C@H]3/C(=C/C=C4C[C@@H](O)C[C@H](O)C4)CCC[C@]23C)C1` [Compound A012, (1R,3R)-5-(2-((1R,3aS,7aR,E)-1-((S)-1-(3-methoxy-3-trifluoromethylazetidin-1-yl)propan-2-yl)-7a-methyloctahydro-4H-inden-4-ylidene)ethylidene)cyclohexane-1,3-diol], the EC50 was 10 to 100 nM.
Turning to `C[C@H](CN1CC(OC(F)(F)F)C1)[C@H]1CC[C@H]2/C(=C/C=C3C[C@@H](O)C[C@H](O)C3)CCC[C@]12C` [Compound A013], the concentration for a half-maximal effect (EC50) lay in the range of 100 to 1000 nM.
The value for `C=C1[C@H](O)CC(=C/C=C2\CCC[C@]3(C)[C@@H]([C@H](C)CN4CC(OCC(F)F)C4)CC[C@@H]23)C[C@H]1O` [Compound A016, (1R,3R)-5-(2-((1R,3aS,7aR,E)-1-((S)-1-(3-(2,2-difluoroethoxy)azetidin-1-yl)propan-2-yl)-7a-methyloctahydro-4H-inden-4-ylidene)ethylidene)-2-methylenecyclohexane-1,3-diol] was 10 to 100 nM; that for `C=C1[C@H](O)CC(=C/C=C2\CCC[C@]3(C)[C@@H]([C@H](C)CN4CC(OC(F)F)C4)CC[C@@H]23)C[C@H]1O` [Compound A018] was 1 to 10 nM.
